In US9440982B2 (Eolas Therapeutics, Inc., priority 2012, dated 2016) one finds IC50 and inhibition data, which are given here for 17 compounds.

The target of one series is T1, OX2 (Homo sapiens, UniProt O43614).
T1 construct: expressed in transfected cells; host or cells: CHO (CHO-OX2, kept under selection antibiotic)
T1 sequence (O43614 1-444): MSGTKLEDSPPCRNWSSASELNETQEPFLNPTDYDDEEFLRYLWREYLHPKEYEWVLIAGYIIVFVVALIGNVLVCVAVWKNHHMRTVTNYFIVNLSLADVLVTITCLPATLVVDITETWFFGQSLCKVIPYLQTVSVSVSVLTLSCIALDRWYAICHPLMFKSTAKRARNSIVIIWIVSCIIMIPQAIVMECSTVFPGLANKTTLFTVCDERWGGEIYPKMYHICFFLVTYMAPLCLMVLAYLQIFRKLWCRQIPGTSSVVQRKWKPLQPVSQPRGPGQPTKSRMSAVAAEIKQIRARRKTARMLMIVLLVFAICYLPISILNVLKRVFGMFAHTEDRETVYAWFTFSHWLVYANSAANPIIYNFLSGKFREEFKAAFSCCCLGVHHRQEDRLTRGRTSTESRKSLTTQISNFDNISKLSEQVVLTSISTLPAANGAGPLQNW
Put plainly: Orexin receptor cell-based functional assay, [Ca2+]i by FLIPR, CHO-OX2 cells. The following applies: [Ca2+]i by FLIPR, antagonist dose-range 0.1 nM-10 μM, EC90 of OXA, read-out: OX2. Here is the method: Measurement of [Ca^2+]i using a FLIPR: CHO—OX1 or CHO—OX2 cells are seeded into black-walled clear-base 384-well plates (Costar) at a density of 20,000 cells per well in F12-K medium supplemented with 10% FBS and selection antibiotic (500 ug/ml G418 or 15 ug/ml Blasticidin) and cultured overnight. The cells are incubated with equal volume of calcium4 loading buffer (Molecular Devices, Inc.) containing 2.5 mM probenecid at 37° C. for 30 min, followed by putative OX1 or OX2 receptor antagonists (dose-range 0.1 nM-10 μM) for another 30 min.
The cells are incubated with equal volume of calcium6 loading buffer (Molecular Devices, Inc.) containing 2.5 mM probenecid at 37° C. for 2 h, followed by test compounds (dose-range 0.1 nM-10 μM) for another 30 min.

The next series concerns the target T2, CYP3A4 (Homo sapiens, UniProt P08684).
T2 construct: pre-incubated with human liver microsomes and NADPH; from tissue; host or cells: human liver microsomes
The series can be described thus: Cytochrome P450 inhibition assay (midazolam hydroxylation). The series is classed as in vitro ADME. The following applies: human, human liver microsomes, probe midazolam (hydroxylation to 1′-hydroxymidazolam), 10 μM test compound, midazolam at approximately its Km. The method, boiled down:
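Percent inhibition of midazolam 1′-hydroxylation by 10 μM compound was measured, midazolam dosed at about Km. Time-dependent inhibition was probed by a 30 min preincubation of compound with human liver microsomes and NADPH ahead of substrate, compared against samples without preincubation.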
(Liver microsomes are vesicles of endoplasmic reticulum, rich in cytochrome P450 enzymes.)

The target of a further series is T3, OX1 (Homo sapiens, UniProt O43613).
T3 construct: expressed in transfected cells; host or cells: CHO (CHO-OX1, kept under selection antibiotic)
T3 sequence (O43613 1-425): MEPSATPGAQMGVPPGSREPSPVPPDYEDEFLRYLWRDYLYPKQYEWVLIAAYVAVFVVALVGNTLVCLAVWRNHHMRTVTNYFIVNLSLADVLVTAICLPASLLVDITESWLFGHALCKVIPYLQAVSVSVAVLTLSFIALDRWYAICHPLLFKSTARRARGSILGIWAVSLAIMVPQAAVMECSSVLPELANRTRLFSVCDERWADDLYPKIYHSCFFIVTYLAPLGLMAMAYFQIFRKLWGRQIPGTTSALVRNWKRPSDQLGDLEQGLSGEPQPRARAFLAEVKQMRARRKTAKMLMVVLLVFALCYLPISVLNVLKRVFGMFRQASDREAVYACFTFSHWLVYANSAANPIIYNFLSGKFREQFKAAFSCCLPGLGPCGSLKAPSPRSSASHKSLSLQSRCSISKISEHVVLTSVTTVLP
The series can be described thus: Orexin receptor cell-based functional assay, [Ca2+]i by FLIPR, CHO-OX1 cells. The following applies: CHO-OX1 cells, [Ca2+]i by FLIPR, antagonist dose-range 0.1 nM-10 μM, EC90 of OXA; read-out: OX1. The method, boiled down:
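Antagonist mode FLIPR calcium read in CHO-OX1 and CHO-OX2 lines. Test compounds, dosed 0.1 nM-10 μM, preincubated 30 min after 37° C dye loading with 2.5 mM probenecid (calcium4 for 30 min or calcium6 for 2 h).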

Bounds are passed on as bounds.

A word on the inhibition: it is the relative decrease from the control value, in per cent.

T2 sequence (P08684 whole entry): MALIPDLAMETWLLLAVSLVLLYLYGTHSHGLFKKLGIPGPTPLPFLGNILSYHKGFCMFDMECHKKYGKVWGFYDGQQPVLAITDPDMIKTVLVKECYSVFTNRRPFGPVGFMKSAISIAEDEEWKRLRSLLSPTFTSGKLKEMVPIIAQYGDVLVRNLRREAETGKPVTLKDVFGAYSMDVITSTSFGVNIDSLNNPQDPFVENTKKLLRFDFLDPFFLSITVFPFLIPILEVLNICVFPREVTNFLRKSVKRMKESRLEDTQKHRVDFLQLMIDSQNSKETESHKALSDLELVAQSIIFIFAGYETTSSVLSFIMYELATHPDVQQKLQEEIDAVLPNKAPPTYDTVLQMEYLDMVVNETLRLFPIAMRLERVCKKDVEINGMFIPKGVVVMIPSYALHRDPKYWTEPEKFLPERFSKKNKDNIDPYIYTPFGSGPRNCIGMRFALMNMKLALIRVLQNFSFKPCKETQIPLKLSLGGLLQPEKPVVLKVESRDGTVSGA

Consider `C[C@@H]1CCCN(C(=O)c2ccc(F)c(F)c2-n2nccn2)[C@@H]1CNc1ccc(C(F)(F)F)cn1` [Example A324, (3,4-Difluoro-2-(2H-1,2,3-triazol-2-yl)phenyl)((2S,3R)-3-methyl-2-(((5-(trifluoromethyl)pyridin-2-yl)amino)methyl)piperidin-1-yl)methanone], for which the IC50 at OX2 is 490 nM; at OX1, 1 nM. Further, testing at 10 µM against CYP3A4 gave an inhibition of 87%.
With `Cc1cc(F)cc(C(=O)N2CCC[C@@H](C)[C@H]2CNc2ccc(C(F)(F)F)cn2)c1-c1ncccn1` [Example A342, (5-Fluoro-3-methyl-2-(pyrimidin-2-yl)phenyl)((2S,3R)-3-methyl-2-(((5-(trifluoromethyl)pyridin-2-yl)amino)methyl)piperidin-1-yl)methanone], the IC50 at OX2 was determined as 380 nM; on OX1, 1 nM. The compound further registered an inhibition at 10 µM against CYP3A4 of 83%.
Consider `Cc1cc(C(=O)N2CCC[C@@H](C)[C@H]2CNc2ncc(C(F)(F)F)cn2)c(-n2nccn2)cc1F` [Example A369, (4-fluoro-5-methyl-2-(2H-1,2,3-triazol-2-yl)phenyl)((2S,3R)-3-methyl-2-(((5-(trifluoromethyl)pyrimidin-2-yl)amino)methyl)piperidin-1-yl)methanone], for which the IC50 at OX2 worked out at 3000 nM; at OX1, 4 nM. Moreover, the inhibition at 10 µM against CYP3A4 came to 60%.
Consider `C[C@@H]1CCCN(C(=O)c2c(F)ccc(F)c2-n2nccn2)[C@@H]1CNc1ncc(C(F)(F)F)cn1` [Example A333, (3,6-difluoro-2-(2H-1,2,3-triazol-2-yl)phenyl)((2S,3R)-3-methyl-2-(((5-(trifluoromethyl)pyrimidin-2-yl)amino)methyl)piperidin-1-yl)methanone], for which the IC50 on OX2 is above 5000 nM; at OX1 it was 15 nM. The compound also yielded an inhibition at 10 µM at CYP3A4 of 38%.
Turning to `Cc1c(F)ccc(C(=O)N2CCC[C@@H](C)[C@H]2CNc2ccc(C(F)(F)F)cn2)c1-c1ncccn1` [Example A346, (4-fluoro-3-methyl-2-(pyrimidin-2-yl)phenyl)((2S,3R)-3-methyl-2-(((5-(trifluoromethyl)pyridin-2-yl)amino)methyl)piperidin-1-yl)methanone], the IC50 on OX2 came out at 4200 nM. In addition, at CYP3A4, the inhibition at 10 µM amounted to 62%.
On to `Cc1ccc(F)c(C(=O)N2CCC[C@@H](C)[C@H]2CNc2ncc(C(F)(F)F)cn2)c1-n1nccn1` [Example A353, (6-fluoro-3-methyl-2-(2H-1,2,3-triazol-2-yl)phenyl)((2S,3R)-3-methyl-2-(((5-(trifluoromethyl)pyrimidin-2-yl)amino)methyl)piperidin-1-yl)methanone], for which the IC50 was above 5000 nM on OX2 and 4 nM at OX1.
The corresponding values for `Cc1ccc(-c2ncccn2)c(C(=O)N2CCC[C@@H](C)[C@H]2CNc2ccc(C(F)(F)F)cn2)c1F` [Example A320, (2-Fluoro-3-methyl-6-(pyrimidin-2-yl)phenyl)((2S,3R)-3-methyl-2-(((5-(trifluoromethyl)pyridin-2-yl)amino)methyl)piperidin-1-yl)methanone] are 1400 nM and 2 nM.
On the same counts, the results for `Cc1c(F)ccc(-c2ncccn2)c1C(=O)N1CCC[C@@H](C)[C@H]1CNc1ncc(C(F)(F)F)cn1` [Example A387, (3-fluoro-2-methyl-6-(pyrimidin-2-yl)phenyl)((2S,3R)-3-methyl-2-(((5-(trifluoromethyl)pyrimidin-2-yl)amino)methyl)piperidin-1-yl)methanone] are above 5000 nM and 30 nM.
As to `C[C@@H]1CCCN(C(=O)c2ccc(F)cc2-c2ncccn2)[C@@H]1CNc1ncc(C(F)(F)F)cn1` [Example A235, (4-Fluoro-2-(pyrimidin-2-yl)phenyl)((2S,3R)-3-methyl-2-(((5-(trifluoromethyl)pyrimidin-2-yl)amino)methyl)piperidin-1-yl)methanone], the IC50 on OX2 was found to be 2400 nM; at OX1, 12 nM.
With `Cc1ccc(-c2cnn(C)c2)c(C(=O)N2CC3CCCC3C2CNc2nc3cc(Cl)ccc3o2)c1` (centres unmarked) [Example A70, (1-(((5-Chlorobenzo[d]oxazol-2-yl)amino)methyl)hexahydrocyclopenta[c]pyrrol-2(1H)-yl)(5-methyl-2-(1-methyl-1H-pyrazol-4-yl)phenyl)methanone], the results for the IC50 at OX2 and at OX1 were 7800 nM and 2500 nM, respectively.
`C[C@@H]1CCCN(C(=O)c2c(-c3ncccn3)ccc(F)c2F)[C@@H]1CNc1ccc(C(F)(F)F)cn1` [Example A388, (2,3-Difluoro-6-(pyrimidin-2-yl)phenyl)((2S,3R)-3-methyl-2-(((5-(trifluoromethyl)pyridin-2-yl)amino)methyl)piperidin-1-yl)methanone]: the IC50 is above 5000 nM at OX2 and 4 nM on OX1.
For the compound `Cc1c(F)ccc(-n2nccn2)c1C(=O)N1CCC[C@@H](C)[C@H]1CNc1ncc(C(F)(F)F)cn1` [Example A385, (3-fluoro-2-methyl-6-(2H-1,2,3-triazol-2-yl)phenyl)((2S,3R)-3-methyl-2-(((5-(trifluoromethyl)pyrimidin-2-yl)amino)methyl)piperidin-1-yl)methanone], the IC50 at OX2 is above 5000 nM; on OX1 it was 24 nM.
For `Cc1ccc(C(=O)N2CCC[C@@H](C)[C@H]2CNc2ncc(C(F)(F)F)cn2)c(-c2ncccn2)c1` [Example A340, ((2S,3R)-3-Methyl-2-(((5-(trifluoromethyl)pyrimidin-2-yl)amino)methyl)piperidin-1-yl)(4-methyl-2-(pyrimidin-2-yl)phenyl)methanone], the IC50 was above 5000 nM at OX2 and 2 nM at OX1.
The corresponding values for `Cc1ccc(-n2nccn2)c(C(=O)N2CC3CCCC3C2CNc2nc3cc(Cl)ccc3o2)c1` (centres unmarked) [Example A68, (1-(((5-Chlorobenzo[d]oxazol-2-yl)amino)methyl)hexahydrocyclopenta[c]pyrrol-2(1H)-yl)(5-methyl-2-(2H-1,2,3-triazol-2-yl)phenyl)methanone] are 3360 nM and 250 nM.
Consider `Cc1ccc(F)c(C(=O)N2CCC[C@@H](C)[C@H]2CNc2ncc(C(F)(F)F)cn2)c1-c1ncccn1` [Example A355, (6-fluoro-3-methyl-2-(pyrimidin-2-yl)phenyl)((2S,3R)-3-methyl-2-(((5-(trifluoromethyl)pyrimidin-2-yl)amino)methyl)piperidin-1-yl)methanone], for which, on OX2, the IC50 came out at 870 nM. Besides, 10 µM produced 25% inhibition against CYP3A4.
Take `Cc1ccc(F)c(C(=O)N2CCC[C@@H](C)[C@H]2CNc2ccc(C(F)(F)F)cn2)c1-n1nccn1` [Example A352, (6-Fluoro-3-methyl-2-(2H-1,2,3-triazol-2-yl)phenyl)((2S,3R)-3-methyl-2-(((5-(trifluoromethyl)pyridin-2-yl)amino)methyl)piperidin-1-yl)methanone]: the IC50 was determined as 1500 nM on OX2 and 4 nM at OX1.
Take `Cc1cccc(-n2nccn2)c1C(=O)N1CCC[C@@H](C)[C@H]1CNc1ccc(C(F)(F)F)cn1` [Example A265, ((2S,3R)-3-Methyl-2-(((5-(trifluoromethyl)pyridin-2-yl)amino)methyl)piperidin-1-yl)(2-methyl-6-(2H-1,2,3-triazol-2-yl)phenyl)methanone]: the IC50 on OX2 is above 5000 nM; on OX1, 8 nM.
